Experimental findings from patent US20200190043A1, “2-[[5-(TRIFLUOROMETHYL)-1,2,4-OXADIAZOL-3-YL]ARYLOXY](THIO)ACETAMIDES FOR COMBATING PHYTOPATHOGENIC FUNGI” (BASF SE, priority 2017, published 2020) are described below.

Experiment [1] has as its system Puccinia recondita. Put plainly: Preventative control of brown rust on wheat (glass house trial). It is filed as in vivo. The conditions noted are these: 63 ppm active compound, wheat seedlings, untreated plants 80% diseased leaf area. On the procedure: (§1) A mixture was prepared of acetone and/or dimethylsulfoxide and the wetting agent/emulsifier Wettol, which is based on ethoxylated alkylphenoles, in a relation (volume) solvent-emulsifier of 99 to 1 was added to the compound to give a total of 5 ml. Water was then added to a total volume of 100 ml. This stock solution was diluted with the described solvent-emulsifier-water mixture to the given concentration. II.4) Preventative Control of Brown Rust on Wheat Caused by Puccinia recondita The first two developed leaves of pot-grown wheat seedling were sprayed to run-off with an aqueous suspension, containing the concentration of active ingredient or their mixture as described below. The next day the plants were inoculated with spores of Puccinia recondita. To ensure the success the artificial inoculation, the plants were transferred to a humid chamber without light and a relative humidity of 95 to 99% and 20 to 24° C. for 24 hours. Then the trial plants were cultivated for 6 days in a greenhouse chamber at 20 to 24° C. and a relative humidity between 65 and 70%. The extent of fungal attack on the leaves was visually assessed as % diseased leaf area.

Experiment [2] concerns Puccinia recondita. Put plainly: Curative control of brown rust on wheat (glass house trial). It is filed as in vivo. The conditions noted are these: 63 ppm active compound, wheat seedlings, untreated plants 80% diseased leaf area. On the procedure:
as §1, with “concentration. II.3) Curative” for “concentration. II.4) Preventative”, “were dusted” for “were sprayed to run-off with an aqueous suspension, containing the concentration of active ingredient or their mixture as described below. The next day the plants were inoculated”, “hours. The next day the plants were cultivated for 3 days in a greenhouse chamber at 20 to 24° C. and a relative humidity between 65 and 70%. Then the plants were sprayed to run-off with an aqueous suspension, containing the concentration of active ingredient or their mixture as described below. The plants could air-dry.” for “hours.”, “for 8” for “for 6”

In the case of `CN(C)C(=O)C(F)(F)Oc1ccc(-c2noc(C(F)(F)F)n2)cc1` [I-2], the diseased leaf area in the experiment on Puccinia recondita [1] is recorded as 2%; in the experiment on Puccinia recondita [2], 3%.
